Measured values: patent publication US6924302B2, “Substituted triazole diamine derivatives as kinase inhibitors” (Ortho McNeil Pharmaceutical, Inc., priority 2000, dated 2005)

What was measured:
CDK1:Cyclin-B = biological target: T1, CDK1:Cyclin-B (Homo sapiens, UniProt P06493); assay: CDK1 Screening Assay; assay type: biochemical; settings: Kinase Selectivity, Tables 2a-2k; read-out: CDK1 IC50
T1 construct: purchased New England Biolabs 6020; host or cells: insect cells
Summary of the method: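 Human CDK1:cyclin-B (30 ng/well) with biotinylated histone-H1 peptide and ^33P-γ-ATP, 1 h at 30° C, 1% DMSO, on streptavidin FlashPlate; incorporation read by scintillation.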

[1] = biological target: T2, CDK2 in complex with cyclin A (Homo sapiens, UniProt P24941); assay: Kinase Selectivity Assay CDK2; assay type: biochemical
T2 construct: purchased Upstate Biotech
Description: (§1) Assays to test compound inhibition of other kinases were preformed using methods that measure the amount of phosphorylation of a biotinylated peptide substrate. Biotinylated peptide substrates were selected from the literature as appropriate for the enzyme being evaluated. […] Assay conditions vary slightly for each protein kinase, for example, insulin receptor kinase requires 10 mM MnCl2 for activity and Calmodulin-dependent protein kinase requires calmodulin and 10 mM CaCl2. These assay conditions are known in the art. The reaction mixture was dispensed into the wells of a streptavidin coated Flashplate and 1 μl drug stock in 100% DMSO was added to a 100 μl reaction volume resulting in a final concentration of 1% DMSO on the reaction. Enzyme was diluted in 50 mM Tris-HCl pH=8.0, 0.1% BSA and add to each well. The reaction was incubated for one hour at 30° C. in the presence of compound. After one hour the reaction mix was aspirated from the plate and the plate was washed with PBS containing 100 mM EDTA. The plate was read on a scintillation counter to determine ^33P-γ-ATP incorporated into the immobilized peptide. Test compounds were assayed in duplicate at 8 concentrations [100 uM, 10 uM, 1 uM, 100 nM, 10 nM, 1 nM, 100 pM, 10 pM]. A maximum and minimum signal for the assay was determined on each plate. The IC50 was calculated from the dose response curve of the percent inhibition of the maximum signal in the assay according to the formula [max signal—background/test compound signal—background (100)=% inhibition] by graphing the percent inhibition against the log concentration of test compound. Known inhibitor compounds appropriate for the kinase being assayed were also included on each plate.
(§2) CDK2 in complex with cyclin A is commercially available (Upstate Biotech, Lake Placid, N.Y.). The CDK4 complex was composed of a mouse CDK4 protein and a mouse Cyclin D1 protein (The mouse CDK4 protein was genetically fused to an N-terminal Flag-epitope tag and the mouse Cyclin D1 protein was fused with an N-terminal AU-1 epitope tag. The genes encoding these proteins were transferred to commercially available baculoviral vectors. The recombinant CDK4/D1 complex was then made by co-infecting commercially available insect cells with viruses carrying these two constructs). […] ERK-1 protein (Discontinued from Calbiochem). EGFR (epidermal growth factor receptor) is purified from human A431 cell membranes (Sigma, St. Louis, Mo., Cat.# E3641).

[2] = biological target: T3, VEGF-R (vascular endothelial growth factor receptor-2) (Rattus norvegicus, UniProt O08775); assay: VEGF-R Screening Assay; assay type: biochemical; settings: Kinase Selectivity, Tables 2a-2k; read-out: VEGF-R IC50
T3 construct: polyhistidine (6xHIS) (N)
T3 sequence (O08775 786-1343): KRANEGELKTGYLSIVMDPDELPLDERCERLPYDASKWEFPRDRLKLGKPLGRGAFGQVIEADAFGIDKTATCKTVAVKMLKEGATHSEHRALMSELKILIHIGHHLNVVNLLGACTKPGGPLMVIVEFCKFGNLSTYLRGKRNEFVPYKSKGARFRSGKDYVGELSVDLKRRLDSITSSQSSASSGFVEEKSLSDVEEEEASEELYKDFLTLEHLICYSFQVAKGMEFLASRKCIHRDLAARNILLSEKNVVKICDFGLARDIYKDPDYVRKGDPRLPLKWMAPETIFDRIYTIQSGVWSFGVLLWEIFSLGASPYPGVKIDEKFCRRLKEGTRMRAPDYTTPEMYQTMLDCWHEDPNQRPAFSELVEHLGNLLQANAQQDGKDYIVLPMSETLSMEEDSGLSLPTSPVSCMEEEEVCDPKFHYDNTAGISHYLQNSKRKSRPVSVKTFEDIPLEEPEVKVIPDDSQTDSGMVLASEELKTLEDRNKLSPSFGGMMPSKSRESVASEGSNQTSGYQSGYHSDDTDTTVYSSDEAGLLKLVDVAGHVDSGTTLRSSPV

[3] = biological target: T4, HER2 (human epidermal growth factor receptor-2) (Homo sapiens, UniProt P04626); assay: Kinase Selectivity Assay HER2; assay type: biochemical; settings: Kinase Selectivity, Tables 2a-2k; read-out: HER2 Kinase IC50
T4 construct: begins at amino acid 676 followed by the remainder of the HER2 cytoplasmic domain; polyhistidine (N)
T4 sequence (P04626 676-1255 limits assumed): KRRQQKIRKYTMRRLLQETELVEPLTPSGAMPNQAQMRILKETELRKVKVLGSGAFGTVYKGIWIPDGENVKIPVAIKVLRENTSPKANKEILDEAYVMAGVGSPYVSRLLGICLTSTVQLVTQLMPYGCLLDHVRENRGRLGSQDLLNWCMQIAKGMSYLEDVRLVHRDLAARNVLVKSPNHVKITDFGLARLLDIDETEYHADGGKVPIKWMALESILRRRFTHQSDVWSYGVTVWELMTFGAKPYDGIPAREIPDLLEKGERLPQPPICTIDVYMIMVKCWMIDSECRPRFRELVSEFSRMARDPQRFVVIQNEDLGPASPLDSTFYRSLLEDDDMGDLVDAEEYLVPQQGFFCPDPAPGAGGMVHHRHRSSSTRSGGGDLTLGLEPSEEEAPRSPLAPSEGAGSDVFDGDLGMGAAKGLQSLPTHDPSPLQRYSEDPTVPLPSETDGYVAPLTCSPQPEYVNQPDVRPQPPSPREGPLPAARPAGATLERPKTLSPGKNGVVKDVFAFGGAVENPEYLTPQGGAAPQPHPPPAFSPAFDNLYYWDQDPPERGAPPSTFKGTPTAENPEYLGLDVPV
Summary of the method: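 Biotinylated peptide phosphorylation measured as ^33P-γ-ATP incorporation on streptavidin plates after 1 h at 30° C, 1% DMSO final, enzyme in 50 mM Tris-HCl pH 8.0, 0.1% BSA. Compounds in duplicate at 8 concentrations, 100 uM to 10 pM. IC50 from percent inhibition versus log concentration.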

[4] = biological target: T5, Glycogen Synthase Kinase-3 (beta isoform) (Oryctolagus cuniculus, UniProt G1T8E2); assay: Kinase Selectivity Assay Glycogen Synthase Kinase-3; assay type: biochemical, rabbit; settings: Kinase Selectivity, Tables 2a-2k; read-out: GSK-3 IC50
T5 construct: purchased New England Biolabs 6040; host or cells: E. coli
T5 sequence (G1T8E2 1-432): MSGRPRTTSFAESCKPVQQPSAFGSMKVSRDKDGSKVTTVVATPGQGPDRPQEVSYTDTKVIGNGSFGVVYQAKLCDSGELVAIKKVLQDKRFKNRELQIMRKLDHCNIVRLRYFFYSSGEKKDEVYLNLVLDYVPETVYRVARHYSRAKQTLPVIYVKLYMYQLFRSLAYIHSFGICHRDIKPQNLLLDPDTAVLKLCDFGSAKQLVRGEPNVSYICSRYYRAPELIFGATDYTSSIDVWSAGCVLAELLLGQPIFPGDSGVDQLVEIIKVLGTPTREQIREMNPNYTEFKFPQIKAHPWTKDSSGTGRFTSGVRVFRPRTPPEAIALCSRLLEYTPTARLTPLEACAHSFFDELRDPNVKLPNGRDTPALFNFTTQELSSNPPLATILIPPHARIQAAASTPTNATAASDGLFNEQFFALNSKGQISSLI
Description: as §1, §2

[5] = biological target: T6, Casein Kinase 2 (alpha and beta subunits) (Homo sapiens, UniProt P68400); assay: Kinase Selectivity Assay Casein Kinase 2; assay type: biochemical; settings: Kinase Selectivity, Tables 2a-2k; read-out: Caseine Kinase 2 IC50
T6 construct: purchased New England Biolabs 6010; host or cells: E. coli
T6 sequence (P68400 whole entry): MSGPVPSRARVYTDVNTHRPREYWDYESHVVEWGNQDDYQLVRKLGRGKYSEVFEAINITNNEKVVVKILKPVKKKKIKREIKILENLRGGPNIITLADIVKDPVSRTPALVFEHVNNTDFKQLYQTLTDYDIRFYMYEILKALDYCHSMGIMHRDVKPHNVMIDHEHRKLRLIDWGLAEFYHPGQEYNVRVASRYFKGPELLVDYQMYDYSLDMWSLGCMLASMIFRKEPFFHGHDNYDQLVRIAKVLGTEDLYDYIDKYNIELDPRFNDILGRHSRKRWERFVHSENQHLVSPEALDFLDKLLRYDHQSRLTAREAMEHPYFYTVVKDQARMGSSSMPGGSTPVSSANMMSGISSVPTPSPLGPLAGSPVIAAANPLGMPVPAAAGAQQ
T6 sequence (P67870 whole entry partner): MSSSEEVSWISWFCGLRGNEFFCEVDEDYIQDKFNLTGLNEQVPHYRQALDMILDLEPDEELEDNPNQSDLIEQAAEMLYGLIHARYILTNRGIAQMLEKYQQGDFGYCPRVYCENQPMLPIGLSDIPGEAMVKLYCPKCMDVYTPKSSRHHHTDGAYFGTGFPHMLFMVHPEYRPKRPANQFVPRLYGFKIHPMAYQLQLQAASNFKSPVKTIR
Description: as §1, §2

[6] = biological target: T7, Calmodulin Kinase (calmodulin-dependent protein kinase 2) (Rattus norvegicus, UniProt P11275); assay: Kinase Selectivity Assay Calmodulin Kinase; assay type: biochemical; settings: Kinase Selectivity, Tables 2a-2k; read-out: Calmodulin Kinase 2 IC50
T7 construct: a truncated version of the alpha subunit of the rat protein; purchased New England Biolabs 6060; host or cells: insect cells
Description: as §1, §2

[7] = system: HeLa cervical adenocarcinoma; assay: Inhibition of Cell Proliferation (14C-thymidine incorporation), HeLa; assay type: cell-based; settings: Homo sapiens, HeLa cell line
Description: (§3) The ability of a test compound to inhibit the proliferation of cell growth was determined by measuring incorporation of ^14C-labelled thymidine into newly synthesized DNA within the cells. This method was used on cell lines derived from carcinomas originating from several tissues such as HeLa cervical adenocarcinoma (American Type Culture Collection (ATCC), Virginia, Cat. #CCL-2), A375 malignant melanoma (ATCC CRL-1619), SK-OV-3 ovarian adenocarcinoma (ATCC HTB-77) HCT-116 colon carcinoma (CCL-247), PC-3 prostate adenocarcinoma (ATCC CRL-1435), and MDA-MB-231 (Xenogen Corp.) In this way the effect of a compound on cell growth of cells with many different phenotypes can be determined. Cells were trypsinized and counted and 3000-8000 cells were added to each well of a 96-well CytoStar tissue culture treated scintillating microplate (Amersham #RPNQ0160) in complete medium in a volume of 100 μl. Cells were incubated for 24 hours in complete medium at 37° C. in an atmosphere containing 5% CO2. Next, 1 μl of test compound in 100% DMSO was added to the wells of the plate. DMSO only was added to control wells. Cells were incubated for 24 more hours in complete medium at 37° C. in an atmosphere containing 5% CO2. Methyl ^14C-thymidine 56 mCi/mmol (NEN #NEC568 or Amersham #CFA532) was diluted in complete medium and 0.2 uCi/well was added to each well of the CytoStar plate in a volume of 20 μl. The plate was incubated for 24 hours at 37° C. plus 5% CO2 in drug plus ^14C-thymidine. The contents of the plate were discarded into a ^14C radioactive waste container by inverting the plate and the plate was washed twice with 200 μl PBS. 200 μl of PBS is added to each well. The top of the plate was sealed with a transparent plate sealer and a white plate backing sealer (Packard #6005199) was applied to the bottom of the plate. The degree of methyl ^14C-thymidine incorporation was quantified on a Packard Top Count.

A375 malignant melanoma = assay: Inhibition of Cell Proliferation (14C-thymidine incorporation), A375; assay type: cell-based; settings: Homo sapiens, A-375, A375 cell line
Description: as §3

Insulin Receptor Kinase = Insulin Receptor Kinase (Homo sapiens, UniProt P06213); assay: Kinase Selectivity Assay Insulin Receptor Kinase; assay type: biochemical; settings: Kinase Selectivity, Tables 2a-2k; read-out: Insulin R Kinase IC50
Insulin Receptor Kinase, sequence (P06213 980-1352): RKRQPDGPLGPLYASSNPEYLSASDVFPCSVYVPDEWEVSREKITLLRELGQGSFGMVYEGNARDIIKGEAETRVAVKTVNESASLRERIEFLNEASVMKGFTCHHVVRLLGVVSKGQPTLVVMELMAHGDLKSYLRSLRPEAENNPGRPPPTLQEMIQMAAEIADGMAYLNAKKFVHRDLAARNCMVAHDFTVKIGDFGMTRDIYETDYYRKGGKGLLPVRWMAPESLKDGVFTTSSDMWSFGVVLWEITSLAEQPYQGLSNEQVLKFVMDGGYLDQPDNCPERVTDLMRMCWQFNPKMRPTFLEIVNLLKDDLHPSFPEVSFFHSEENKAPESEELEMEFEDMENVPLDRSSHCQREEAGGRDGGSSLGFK
Description: as §1, §2

[8] = biological target: T8, Casein Kinase 1 (CK1 delta isoform) (Rattus norvegicus, UniProt Q06486); assay: Kinase Selectivity Assay Casein Kinase 1; assay type: biochemical; settings: Tables 2a-2k, read-out: Caseine Kinase 1 IC50
T8 construct: a truncation at amino acid 318 of the C-terminal portion of the rat CK1 delta isoform; purchased New England Biolabs 6030; host or cells: E. coli
T8 sequence (Q06486 1-317): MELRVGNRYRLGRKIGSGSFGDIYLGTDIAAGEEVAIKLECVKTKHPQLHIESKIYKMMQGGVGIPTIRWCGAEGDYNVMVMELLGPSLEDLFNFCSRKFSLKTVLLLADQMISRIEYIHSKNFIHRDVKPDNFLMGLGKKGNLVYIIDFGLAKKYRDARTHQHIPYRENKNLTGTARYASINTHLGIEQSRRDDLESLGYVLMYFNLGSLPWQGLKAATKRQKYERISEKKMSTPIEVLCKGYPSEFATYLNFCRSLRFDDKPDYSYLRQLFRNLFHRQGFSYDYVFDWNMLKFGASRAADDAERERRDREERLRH
Description: as §1, §2

[9] = biological target: T9, PDGF-R (platelet derived growth factor receptor) beta subunit kinase domain (Homo sapiens, UniProt P09619); assay: Kinase Selectivity Assay PDGF-R; assay type: biochemical; settings: Kinase Selectivity, Tables 2a-2k; read-out: PDGF-R kinase IC50
T9 construct: nucleotides 1874-3507 of the human PDGF-R beta subunit kinase domain; polyhistidine (N)
T9 sequence (P09619 564-1106): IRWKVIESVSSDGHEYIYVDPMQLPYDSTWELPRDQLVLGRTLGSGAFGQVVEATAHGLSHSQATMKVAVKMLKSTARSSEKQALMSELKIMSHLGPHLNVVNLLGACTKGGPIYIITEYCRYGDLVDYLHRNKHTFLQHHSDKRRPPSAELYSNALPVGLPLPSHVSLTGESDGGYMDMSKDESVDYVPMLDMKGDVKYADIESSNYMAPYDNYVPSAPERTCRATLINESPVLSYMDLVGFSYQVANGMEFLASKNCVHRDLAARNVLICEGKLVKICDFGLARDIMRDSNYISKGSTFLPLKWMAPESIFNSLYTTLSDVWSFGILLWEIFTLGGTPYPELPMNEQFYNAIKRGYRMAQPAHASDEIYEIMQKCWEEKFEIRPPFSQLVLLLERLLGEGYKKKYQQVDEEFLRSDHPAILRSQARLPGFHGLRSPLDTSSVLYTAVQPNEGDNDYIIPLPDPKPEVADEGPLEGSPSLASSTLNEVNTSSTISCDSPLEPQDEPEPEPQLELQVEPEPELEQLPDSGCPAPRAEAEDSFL
Description: as §1, §2

Protein Kinase A = biological target: T10, Protein Kinase A (Bos taurus, UniProt P00517); assay: Kinase Selectivity Assay Protein Kinase A; assay type: biochemical, bovine; settings: Kinase Selectivity, Tables 2a-2k; read-out: PKA IC50
T10 construct: purified from bovine heart; purchased Upstate Biotech 14-114; host or cells: bovine heart
Description: as §1, §2

HCT-116 colon carcinoma = assay: Inhibition of Cell Proliferation (14C-thymidine incorporation), HCT-116; assay type: cell-based; settings: Homo sapiens, HCT-116 cell line
Description: as §3

[10] = biological target: T11, MAP Kinase (ERK-2 isoform) (Rattus norvegicus, UniProt P63086); assay: Kinase Selectivity Assay MAP Kinase (ERK-2); assay type: biochemical; settings: Kinase Selectivity, Tables 2a-2k; read-out: ERK 2 IC50
T11 construct: polyhistidine (N); host or cells: E. coli
T11 sequence (P63086 whole entry, canonical isoform): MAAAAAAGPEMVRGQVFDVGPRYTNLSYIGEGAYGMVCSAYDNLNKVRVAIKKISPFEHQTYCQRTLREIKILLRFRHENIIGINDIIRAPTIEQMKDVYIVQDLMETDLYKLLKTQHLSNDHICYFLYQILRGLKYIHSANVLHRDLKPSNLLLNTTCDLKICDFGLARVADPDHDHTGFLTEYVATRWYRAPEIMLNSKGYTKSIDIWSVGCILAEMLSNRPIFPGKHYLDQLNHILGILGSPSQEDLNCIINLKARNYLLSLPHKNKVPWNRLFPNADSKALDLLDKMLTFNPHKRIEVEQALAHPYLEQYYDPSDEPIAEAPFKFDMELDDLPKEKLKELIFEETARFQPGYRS
Description: as §1, §2

[11] = Kinase Selectivity, Tables 2a-2k

T1 sequence (P06493 whole entry): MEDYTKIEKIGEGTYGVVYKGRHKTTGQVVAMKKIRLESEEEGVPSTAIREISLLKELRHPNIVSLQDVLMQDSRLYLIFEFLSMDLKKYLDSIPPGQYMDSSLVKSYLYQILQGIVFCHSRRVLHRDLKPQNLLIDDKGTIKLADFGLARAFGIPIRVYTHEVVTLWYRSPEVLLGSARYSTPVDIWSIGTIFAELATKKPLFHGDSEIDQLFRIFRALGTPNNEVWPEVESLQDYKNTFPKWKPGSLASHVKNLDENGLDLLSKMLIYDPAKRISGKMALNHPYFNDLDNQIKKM
T1 sequence (P14635 whole entry partner): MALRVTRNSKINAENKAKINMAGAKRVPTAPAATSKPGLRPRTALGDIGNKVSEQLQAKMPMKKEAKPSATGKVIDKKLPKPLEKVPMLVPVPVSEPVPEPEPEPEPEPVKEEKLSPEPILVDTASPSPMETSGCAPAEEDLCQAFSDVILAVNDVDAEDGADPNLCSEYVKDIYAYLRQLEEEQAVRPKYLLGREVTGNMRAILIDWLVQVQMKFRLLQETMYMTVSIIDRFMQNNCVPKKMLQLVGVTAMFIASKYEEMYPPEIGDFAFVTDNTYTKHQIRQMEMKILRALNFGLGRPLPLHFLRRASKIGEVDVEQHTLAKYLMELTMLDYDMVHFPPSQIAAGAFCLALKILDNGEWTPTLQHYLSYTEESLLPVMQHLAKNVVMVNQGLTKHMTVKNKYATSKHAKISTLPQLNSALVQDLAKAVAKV

SMILES | IC50 (CDK1:Cyclin-B) | IC50 [1, 11] | IC50 [2] | IC50 [3] | IC50 [4] | IC50 [5] | IC50 [6] | IC50 [7] | IC50 (A375 malignant melanoma) | IC50 (Insulin Receptor Kinase) | IC50 [8] | IC50 [9] | IC50 (Protein Kinase A) | IC50 (HCT-116 colon carcinoma) | IC50 [10] | IC50 ([1]; Table 1)
Nc1nc(Nc2cccc(Cl)c2)nn1C(=O)c1c(F)cccc1F [Cpd 63, N^3-(3-chlorophenyl)-1-(2,6-difluorobenzoyl)-1H-1,2,4-triazole-3,5-diamine] | 79 nM | 56 nM | 320 nM | 150 nM | 73 nM |  |  |  |  |  |  |  |  |  |  | 
Cc1ccc(F)c(C(=O)n2nc(Nc3ccc(N4CCNC4=O)cc3)nc2N)c1F [Cpd 114, 1-[4-[[5-amino-1-(2,6-difluoro-3-methylbenzoyl)-1H-1,2,4-triazol-3-yl]amino]phenyl]-2-imidazolidinone] |  |  |  |  | 431 nM | > 100000 nM | > 100000 nM | 2530 nM | 1690 nM | > 100000 nM | 2000 nM | 13800 nM | > 100000 nM | 1380 nM | 15800 nM | 
Nc1nc(Nc2ccccc2)n(C(=O)c2ccccc2)n1 [Cpd 125, 1-benzoyl-N^5-phenyl-1H-1,2,4-triazole-3,5-diamine] | > 100000 nM | 7300 nM | > 100000 nM | > 100000 nM | > 100000 nM |  |  |  |  |  |  |  |  |  |  | 
Cc1ccsc1C(=O)n1nc(Nc2ccc(S(=O)(=O)Nc3ccccn3)cc2)nc1N [Cpd 121] |  |  |  |  | 29 nM | > 100000 nM | > 100000 nM | 310 nM | 215 nM | > 100000 nM | > 10000 nM | 394 nM | > 100000 nM | 608 nM | > 100000 nM | 3 nM
Nc1nc(Nc2ccccc2)nn1C(=O)Nc1ccccc1 [Cpd 65, 5-amino-N-phenyl-3-(phenylamino)-1H-1,2,4-triazole-1-carboxamide] | 670 nM | 410 nM | 180 nM | 790 nM | 100 nM |  |  |  |  |  |  |  |  |  |  | 
Nc1nc(Nc2cccc(Cl)c2)nn1C(=O)c1ccccc1 [Cpd 64, 1-benzoyl-N^3-(3-chlorophenyl)-1H-1,2,4-triazole-3,5-diamine] | 210 nM | 200 nM | 51 nM | 76 nM | 21 nM |  |  |  |  |  |  |  |  |  |  | 
